# Results reported in PubChem BioAssay (NCI).
#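 How tested: cells in 96-well plates exposed to compound for 48 hours at five concentrations. Abbreviation: GI50, concentration required for 50% inhibition of growth. TGI: concentration producing complete growth inhibition.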
# How the values were obtained:
# Test in all cases: inhibition of tumour cell growth, NCI panel, 48 h
# [1] = system: 786-0 renal
# [2] = system: A498 renal
# [3] = system: ACHN renal
# [4] = system: BT-549 breast
# [5] = system: CAKI-1 renal
# [6] = system: COLO 205 colon
# [7] = system: DU-145 prostate
# [8] = system: HCC-2998 colon
# [9] = system: HCT-116 colon
# [10] = system: HCT-15 colon
# [11] = system: HL-60(TB) leukemia
# [12] = system: HOP-62 NSCLC
# [13] = system: HOP-92 NSCLC
# [14] = system: HS 578T breast
# [15] = system: HT29 colon
# [16] = system: IGROV1 ovarian
# [17] = system: K-562 leukemia
# [18] = system: KM12 colon
# [19] = system: LOX IMVI melanoma
# [20] = system: M14 melanoma
# [21] = system: MALME-3M melanoma
# [22] = system: MCF7 breast
# [23] = system: MDA-MB-231 breast
# [24] = system: MDA-MB-435
# [25] = system: MOLT-4 leukemia
# [26] = system: NCI-H226 lung
# [27] = system: NCI-H23 lung
# [28] = system: NCI-H460 lung
# [29] = system: NCI/ADR-RES ovarian
# [30] = system: OVCAR-3 ovarian
# [31] = system: OVCAR-4 ovarian
# [32] = system: OVCAR-5 ovarian
# [33] = system: OVCAR-8 ovarian
# [34] = system: PC-3 prostate
# [35] = system: RPMI-8226 leukemia
# [36] = system: RXF 393 renal
# [37] = system: SF-268 CNS
# [38] = system: SF-295 CNS
# [39] = system: SF-539 CNS
# [40] = system: SK-MEL-2 melanoma
# [41] = system: SK-MEL-28 melanoma
# [42] = system: SK-MEL-5 melanoma
# [43] = system: SK-OV-3 ovarian
# [44] = system: SN12C renal
# [45] = system: SNB-19 CNS
# [46] = system: SNB-75 CNS
# [47] = system: SR leukemia
# [48] = system: SW-620 colon
# [49] = system: T-47D breast
# [50] = system: TK-10 renal
# [51] = system: U251 CNS
# [52] = system: UACC-62 melanoma
# [53] = system: UO-31 renal
smiles,measurement,setting,value
CCCCc1ccc(NS(=O)(=O)c2cc3c4c(c2)CCN4C(=O)CC3)cc1,GI50,[1],17.9 µM
same,TGI,[1],74.6 µM
same,GI50,[2],5.82 µM
same,TGI,[2],37.5 µM
same,GI50,[3],15.7 µM
same,TGI,[3],> 100 µM
same,GI50,[4],18 µM
same,TGI,[4],> 100 µM
same,GI50,[5],8.49 µM
same,TGI,[5],78.5 µM
same,GI50,[6],25.1 µM
same,TGI,[6],87.2 µM
same,GI50,[7],35.5 µM
same,TGI,[7],> 100 µM
same,GI50,[8],89.5 µM
same,TGI,[8],> 100 µM
same,GI50,[9],17.5 µM
same,TGI,[9],> 100 µM
same,GI50,[10],17 µM
same,TGI,[10],> 100 µM
same,GI50,[11],12.2 µM
same,TGI,[11],58.3 µM
same,GI50,[12],28.5 µM
same,TGI,[12],94.1 µM
same,GI50,[13],9.27 µM
same,TGI,[13],36.4 µM
same,GI50,[14],15.2 µM
same,TGI,[14],61.2 µM
same,GI50,[15],32.5 µM
same,TGI,[15],> 100 µM
same,GI50,[16],44.4 µM
same,TGI,[16],> 100 µM
same,GI50,[17],9.3 µM
same,TGI,[17],> 100 µM
same,GI50,[18],26.9 µM
same,TGI,[18],> 100 µM
same,GI50,[19],35.1 µM
same,TGI,[19],> 100 µM
same,GI50,[20],19.8 µM
same,TGI,[20],> 100 µM
same,GI50,[21],35.4 µM
same,TGI,[21],> 100 µM
same,GI50,[22],9.94 µM
same,TGI,[22],> 100 µM
same,GI50,[23],16.1 µM
same,TGI,[23],> 100 µM
same,GI50,[24],16.9 µM
same,TGI,[24],> 100 µM
same,GI50,[25],11.2 µM
same,TGI,[25],77.6 µM
same,GI50,[26],15.9 µM
same,TGI,[26],> 100 µM
same,GI50,[27],10.6 µM
same,TGI,[27],> 100 µM
same,GI50,[28],28.2 µM
same,TGI,[28],> 100 µM
same,GI50,[29],7.97 µM
same,TGI,[29],> 100 µM
same,GI50,[30],22.6 µM
same,TGI,[30],> 100 µM
same,GI50,[31],25.1 µM
same,TGI,[31],> 100 µM
same,GI50,[32],35.8 µM
same,TGI,[32],> 100 µM
same,GI50,[33],19.7 µM
same,TGI,[33],> 100 µM
same,GI50,[34],11.7 µM
same,TGI,[34],> 100 µM
same,GI50,[35],7.79 µM
same,TGI,[35],57 µM
same,GI50,[36],16.1 µM
same,TGI,[36],62.5 µM
same,GI50,[37],30.3 µM
same,TGI,[37],> 100 µM
same,GI50,[38],13.4 µM
same,TGI,[38],93.8 µM
same,GI50,[39],24.4 µM
same,TGI,[39],> 100 µM
same,GI50,[40],17.5 µM
same,TGI,[40],63.6 µM
same,GI50,[41],39.3 µM
same,TGI,[41],> 100 µM
same,GI50,[42],8.25 µM
same,TGI,[42],45.4 µM
same,GI50,[43],34.9 µM
same,TGI,[43],> 100 µM
same,GI50,[44],34.6 µM
same,TGI,[44],> 100 µM
same,GI50,[45],29.8 µM
same,TGI,[45],> 100 µM
same,GI50,[46],18.4 µM
same,TGI,[46],78 µM
same,GI50,[47],7.35 µM
same,TGI,[47],> 100 µM
same,GI50,[48],33.5 µM
same,TGI,[48],> 100 µM
same,GI50,[49],5.48 µM
same,TGI,[49],72.1 µM
same,GI50,[50],15.1 µM
same,TGI,[50],55 µM
same,GI50,[51],23.5 µM
same,TGI,[51],> 100 µM
same,GI50,[52],6.1 µM
same,TGI,[52],65.2 µM
same,GI50,[53],12.8 µM
same,TGI,[53],> 100 µM
